Experimental data taken from patent publication US12533357B2, “Treatment for acute myeloid leukemia or myelodysplastic syndrome” (UNIVERSITY HEALTH NETWORK, priority 2019, dated 2026).

Experiments:
[1] = test system: MOLT-4 acute lymphoblastic leukemia xenograft; assay: MOLT-4 xenograft tumor growth in SCID mice; type: in vivo; conditions: day 13; 0.5 mg/kg IP weekly; p=0.21
Description: (§1) The human acute lymphoblastic leukemia cell line MOLT-4 was acquired from American Type Culture Collection (Manassas, VA, USA) and grown in RPMI medium containing 100 units/mL penicillin G sodium, 100 μg/mL streptomycin sulfate. The media was supplemented with 10% heat-inactivated fetal bovine serum, 2 mM L-glutamine, and 0.11% sodium pyruvate. The tumor cells were maintained in a humidified environment of 5% CO2 and 95% air at 37° C. Cells were verified to be free of mouse pathogens by IMPACT IV PCR analysis (IDEXX RADIL, Colombia, MO, USA) before injection.
(§2) Female SCID mice were purchased from the Ontario Cancer Institute and received and acclimated at the MaRS-TMDT Animal Resources Centre for 2 weeks prior to the start of the experiment. The mice were fed ad libitum autoclaved water and Rodent Lab Diet (Harlan Teklad LM-485) consisting of 19% crude protein, 5% crude fat, and 5% crude fiber. Mice were housed in microisolator cages and maintained in an environment with a 12-hour light cycle at 20-22° C. and 40-60% humidity. On the day of implantation, MOLT-4 cells were harvested and resuspended with serum free DMEM to a concentration of 1×10^8/mL and each mouse was injected subcutaneously with a volume of 0.1 mL containing 1×10^7 MOLT-4 cells in the right rear flank.
Animals were dosed Compound (I) via oral gavage in a volume of 10 mL/kg. The animals were dosed with a 2.25 mm×50 mm curved gavage needle affixed to a 1 mL syringe. Vincristine was dosed by IP injection once per week.
(§3) Toxicity was evaluated by body weight measurements and clinical observations. The mice were observed daily for overt signs of any adverse, treatment related side effects, and clinical signs of toxicity. Acceptable toxicity was set at a group mean body weight loss of less than 20% during the study and not more than one treatment related death in a group. Animals were monitored for body weights and tumor growth where tumor volumes were calculated using the formula: tumor volume=width^2×length/2.
(§4) The study evaluated Compound (I) fumarate administered by oral gavage for 21 days, either daily at 7.5 mg/kg or 2 days on/5 days off at 13.5 mg/kg, in comparison to the standard-of-care agent vincristine, dosed in 4 weekly intraperitoneal injections of 0.5 mg/kg, in the MOLT-4 […] xenograft model in SCID (severe combined immunodeficiency) mice. Xenografts were established by subcutaneously injecting 1×10^7 tumor cells into the right flank of female SCID mice. Treatment was initiated 9 days following implantation when tumor volumes reached a mean volume of approximately 250 mm^3.

[2] = test system: MV4-11 acute myeloid leukemia xenograft; assay: MV4-11 xenograft tumor growth in SCID mice; type: in vivo; conditions: day 13; vincristine 0.5 mg/kg IP weekly; p=0.14
Description: as §1, with “myeloid” for “lymphoblastic”, “MV4-11” for “MOLT-4”
as §2, with “MV4-11” for “MOLT-4”
Animals were dosed Compound (I) via oral gavage in a volume of 10 ml/kg. The animals were dosed with a 2.25 mm×50 mm curved gavage needle affixed to a 1 ml syringe. Vincristine was dosed by IP injection once per week.
as §3
as §4, with “gavage,” for “gavage for 21 days,”, “MV4-11” for “MOLT-4”, “14” for “9”, “90” for “250”, “mm^3. […] Animals were dosed in the 2-on/5-off schedule for 21 days. […] By day 13, the average volume of the control tumors was 878 mm^3, averaging […] tumor growth over the 13 days. On day 13 the average tumor growth inhibition in the vincristine treated arm was 85% (p=0.14).” for “mm^3.”

CC[C@]1(O)C[C@H]2CN(CCc3c([nH]c4ccccc34)[C@@](C(=O)OC)(c3cc4c(cc3OC)N(C=O)[C@H]3[C@@](O)(C(=O)OC)[C@H](OC(C)=O)[C@]5(CC)C=CCN6CC[C@]43[C@@H]65)C2)C1 [vincristine, reference compound]
average tumor growth inhibition [1]: 18% | average tumor growth inhibition [2]: 85%
